Data reported in patent US10363239B2, “Method for inhibiting growth of cancer cells” (Pain Therapeutics, Inc., priority 2013, dated 2019).
Read-outs that look alike come from different tables or passages of the source.

Experiments:
mu opiate receptor (MOR) = test: MOR agonist activity using [35S]GTPγS binding assay in striatal membranes; format: biochemical
Description: To assess the mu opiate receptor (MOR) agonist activity of positive compounds from the FLNA screening, compounds were tested in a [^35S]GTPγS binding assay using striatal membranes. […] This assay measures a functional consequence of receptor occupancy at one of the earliest receptor-mediated events. The assay permits traditional pharmacological parameters of potency, efficacy and antagonist affinity, with the advantage that agonist measures are not subjected to amplification or other modulation that may occur when analyzing parameters further downstream of the receptor.
Thus, striatal tissue was homogenized in 10 volumes of ice cold 25 mM HEPES buffer, pH 7.4, which contained 1 mM EGTA, 100 mM sucrose, 50 μg/ml leupeptin, 0.04 mM PMSF, 2 μg/ml soybean trypsin inhibitor and 0.2% 2-mercaptoethanol. The homogenates were centrifuged at 800×g for 5 minutes and the supernatants were centrifuged at 49,000×g for 20 minutes. The resulting pellets were suspended in 10 volume of reaction buffer, which contained 25 mM HEPES, pH 7.5, 100 mM NaCl, 50 μg/ml leupeptin, 2 μg/ml soybean trypsin inhibitor, 0.04 mM PMSF and 0.02% […].
The resultant striatal membrane preparation (200 μg) was admixed and maintained (incubated) at 30° C. for 5 minutes in reaction buffer as above that additionally contained 1 mM MgCl2 and 0.5 nM [^35S]GTPγS (0.1 μCi/assay, PerkinElmer Life and Analytical Sciences) in a total volume of 250 μl and continued for 5 minutes in the absence or presence of 0.1-10 μM of an assayed compound of interest. The reaction was terminated by dilution with 750 μl of ice-cold reaction buffer that contained 20 mM MgCl2 and 1 mM EGTA and immediate centrifugation at 16,000×g for 5 minutes.
The resulting pellet was solubilized by sonicating for 10 seconds in 0.5 ml of immunoprecipitation buffer containing 0.5% digitonin, 0.2% sodium cholate and 0.5% NP-40. Normal rabbit serum (1 μl) was added to 1 ml of lysate and incubated at 25° C. for 30 minutes. Nonspecific immune complexes were removed by incubation with 25 μl of protein A/G-conjugated agarose beads at 25° C. for 30 minutes followed by centrifugation at 5,000×g at 4° C. for 5 minutes. The supernatant was divided and separately incubated at 25° C. for 30 minutes with antibodies raised against Gαo proteins (1:1,000 dilutions).
The immunocomplexes so formed were collected by incubation at 25° C. for 30 minutes with 40 μl of agarose-conjugated protein A/G beads and centrifugation at 5,000×g at 4° C. for 5 minutes. The pellet was washed and suspended in buffer containing 50 mM Tris-HCl, pH 8.0, and 1% NP-40. The radioactivity in the suspension was determined by liquid scintillation spectrometry.

[1] = biological target: FLNA pentapeptide of SEQ ID NO: 1 (Bn-VAKGL) (Homo sapiens, UniProt P21333); test: FITC-NLX-based FLNA screening assay (inhibition of FITC-naloxone binding to Bn-VAKGL on streptavidin plates); details: 10 nM FITC-NLX
[2] = Series C-1, 0.1 μM compound, relative to DAMGO
[3] = Series C-1, 0.1 μM compound, [35S]GTPγS binding to Gαo, striatal membranes
[4] = Series C-1, 1 μM compound + 1 μM β-FNA
[5] = Series C-1, 1 μM compound + β-FNA, relative to DAMGO + BFNA
[6] = Series C-1, 1 μM compound, relative to DAMGO
[7] = Series C-1, 1 μM compound, [35S]GTPγS binding to Gαo, striatal membranes
[8] = read-out: Percent Binding Inhibition, FLNA-binding compound 0.01 μM
[9] = read-out: Percent Binding Inhibition, FLNA-binding compound 0.1 μM
[10] = read-out: Percent Binding Inhibition, FLNA-binding compound 1 μM
[11] = Series C-2, 0.1 μM compound, relative to DAMGO
[12] = Series C-2, 0.1 μM compound, [35S]GTPγS binding to Gαo, striatal membranes
[13] = Series C-2, 1 μM compound + 1 μM β-FNA
[14] = Series C-2, 1 μM compound + β-FNA, relative to DAMGO + BFNA
[15] = Series C-2, 1 μM compound, relative to DAMGO
[16] = Series C-2, 1 μM compound, [35S]GTPγS binding to Gαo, striatal membranes
[17] = FLNA-binding compound 0.01 μM, read-out: Percent Binding Inhibition
[18] = FLNA-binding compound 0.1 μM, read-out: Percent Binding Inhibition
[19] = FLNA-binding compound 1 μM, read-out: Percent Binding Inhibition

Compound | % DAMGO (0.1 μM) (mu opiate receptor (MOR); [2]) | Concentration of FLNA-Binding Compound as Agonist 0.1 μM (mu opiate receptor (MOR); [3]) | Concentration of FLNA-Binding Compound as Agonist 1 μM + BFNA (mu opiate receptor (MOR); [4]) | % DAMGO + BFNA (mu opiate receptor (MOR); [5]) | % DAMGO (1 μM) (mu opiate receptor (MOR); [6]) | Concentration of FLNA-Binding Compound as Agonist 1 μM (mu opiate receptor (MOR); [7]) | inhibition at 0.01 µM [1, 8] | inhibition at 0.1 µM [1, 9] | inhibition at 1 µM [1, 10] | % DAMGO (0.1 μM) (mu opiate receptor (MOR); [11]) | MOR agonist activity, percent [35S]GTPγS binding at the stated compound concentration (mu opiate receptor (MOR); [12]) | MOR agonist activity, percent [35S]GTPγS binding at the stated compound concentration (mu opiate receptor (MOR); [13]) | % DAMGO + BFNA (mu opiate receptor (MOR); [14]) | % DAMGO (1 μM) (mu opiate receptor (MOR); [15]) | MOR agonist activity, percent [35S]GTPγS binding at the stated compound concentration (mu opiate receptor (MOR); [16]) | inhibition at 0.01 µM [1, 17] | inhibition at 0.1 µM [1, 18] | inhibition at 1 µM [1, 19] | other results
CC(=O)c1ccc(S(=O)(=O)N2CCC3(CC2)NC(=O)CN3S(=O)(=O)c2ccc(C(C)=O)cc2)cc1 [Compound C0064] | 124.2% | 213.8% | 38.1% | 110.4% | 159.1% | 349.6% | 37.3% | 44.4% | 49.2% |  |  |  |  |  |  |  |  |  | 
CC(=O)c1ccc(S(=O)(=O)N2CCC3(CC2)OCCN3S(C)(=O)=O)cc1 [Compound C0056] |  |  |  |  |  |  |  |  |  | 68.0% | 98.6% | 86.3% | 196.1% | 83.0% | 193.4% | 33.7% | 38.9% | 41.4% | 
CCN1CCC2(CC1)OCCN2S(=O)(=O)c1ccc(OC)cc1 [Compound C0089M] |  |  |  |  |  |  |  |  |  | 136.3% | 234.5% | 81.9% | 237.4% | 134.4% | 295.3% | 40.7% | 46.1% | 51.2% | 
COc1cc(F)ccc1C(=O)CC1c2c(cc3c(c2OC)OCO3)CC[N+]1(C)C (stereo not drawn) [Compound B0007] |  |  |  |  |  |  | 43.6% | 53.1% | 57.3% |  |  |  |  |  |  |  |  |  | % DAMGO (0.1 μM) (mu opiate receptor (MOR); Series B, 0.1 μM compound, relative to DAMGO): 95.3%; MOR agonist activity, percent [35S]GTPγS binding at the stated compound concentration (mu opiate receptor (MOR); Series B, 0.1 μM compound, [35S]GTPγS binding to Gαo, striatal membranes): 168.3%; MOR agonist activity, percent [35S]GTPγS binding at the stated compound concentration (mu opiate receptor (MOR); Series B, 1 μM compound + 1 μM β-FNA): 64.5%; % DAMGO + BFNA (mu opiate receptor (MOR); Series B, 1 μM compound + β-FNA, relative to DAMGO + BFNA): 98.2%; % DAMGO (1 μM) (mu opiate receptor (MOR); Series B, 1 μM compound, relative to DAMGO): 86.1%; MOR agonist activity, percent [35S]GTPγS binding at the stated compound concentration (mu opiate receptor (MOR); Series B, 1 μM compound, [35S]GTPγS binding to Gαo, striatal membranes): 223.3%
O=S(=O)(c1ccc(Br)cc1C(F)(F)F)N1CCC2(CC1)OCCN2S(=O)(=O)c1ccc(Br)cc1C(F)(F)F [Compound C0068] | 53.4% | 107.2% | 165.9% | 307.8% | 83.8% | 263.1% | 53.7% | 58.6% | 62.2% |  |  |  |  |  |  |  |  |  | 
O=S(=O)(c1ccc(F)cc1)N1CCC2(CC1)OCCN2S(=O)(=O)c1ccc(F)cc1 [Compound C0029] | 91.2% | 175.4% | 16.6% | 37.8% | 113.1% | 308.8% | 38.6% | 43.2% | 50.5% |  |  |  |  |  |  |  |  |  | 
COc1cccc(S(=O)(=O)N2CCC3(CC2)OCCN3S(=O)(=O)c2cccc(OC)c2)c1 [Compound C0002] | 51.4% | 88.4% | 3.9% | 6.1% | 33.9% | 93.8% | 38.4% | 45.6% | 42.8% |  |  |  |  |  |  |  |  |  | 
CC(=O)c1ccc(S(=O)(=O)N2CCOC23CCNCC3)cc1 [Compound C0046] |  |  |  |  |  |  |  |  |  | 197.4% | 286.2% | 156.8% | 356.4% | 211.5% | 492.9% | 30.8% | 35.7% | 42.2% | 
COc1ccc(S(=O)(=O)N2CCSC23CCNCC3)cc1 [S-C0027] |  |  |  |  |  |  |  |  |  | 74.2% | 156.2% | 56.2% | 98.1% | 84.4% | 286.8% | 39.1% | 46.5% | 53.6% | 
O=C(O)c1ccc(C(=O)N2CCC3(CC2)OCCN3S(=O)(=O)c2ccc(C(=O)O)cc2)cc1 [Compound C0021] | 94.5% | 159.7% | 90.7% | 546.4% | 87.8% | 192.0% |  |  |  |  |  |  |  |  |  | 34% | 38.4% | 40.6% | 
CC(=O)c1ccc(S(=O)(=O)N2CCOC23CCN(CC2CC2)CC3)cc1 [Compound C0095M] |  |  |  |  |  |  |  |  |  | 107.4% | 189.1% | 107.7% | 489.5% | 88.8% | 224.6% | 40.1% | 46.6% | 50.5% | 
CN1CCC2(CC1)OCCN2S(=O)(=O)c1ccc(S(C)(=O)=O)cc1 [Compound C0106M] |  |  |  |  |  |  | 45.8% | 55.6% | 58.9% | 102.5% | 171.8% | 117.2% | 246.7% | 108.3% | 240.7% |  |  |  | 
O=S(=O)(c1ccc2ccccc2c1)N1CCC2(CC1)OCCN2S(=O)(=O)c1ccc2ccccc2c1 [Compound C0140M] | 85.8% | 126.1% | 83.0% | 211.2% | 106.5% | 215.4% | 42.3% | 49.2% | 54.4% |  |  |  |  |  |  |  |  |  | 
CC1CCC(C(C)C)C(OCC(O)CN2CCC(=O)C(C)C2)C1 (stereo not drawn) [Compound A0056] |  |  |  |  |  |  | 34.4% | 40.9% | 41.3% |  |  |  |  |  |  |  |  |  | MOR agonist activity ([35S]GTPγS binding), FLNA-Binding Compound as Agonist 0.1 μM (mu opiate receptor (MOR); 0.1 μM compound): 115.6%; % DAMGO (0.1 μM) (mu opiate receptor (MOR); 0.1 μM compound relative to DAMGO): 74.1%; MOR agonist activity ([35S]GTPγS binding), FLNA-Binding Compound as Agonist 1 μM (mu opiate receptor (MOR); 1 μM compound): 129.6%; MOR agonist activity ([35S]GTPγS binding), FLNA-Binding Compound as Agonist 1 μM + BFNA (mu opiate receptor (MOR); 1 μM compound + 1 μM β-funaltrexamine): 17.4%; % DAMGO + BFNA (mu opiate receptor (MOR); 1 μM compound + BFNA relative to DAMGO + BFNA): 43.6%; % DAMGO (1 μM) (mu opiate receptor (MOR); 1 μM compound relative to DAMGO): 56.2%
